Laboratory results as given in PMC3591309, “Deoxyhypusine Hydroxylase from Plasmodium vivax, the Neglected Human Malaria Parasite: Molecular Cloning, Expression and Specific Inhibition by the 5-LOX Inhibitor Zileuton” (PLoS ONE, 2013).

Target: T1, Deoxyhypusine hydroxylase (DOHH) (Plasmodium vivax, UniProt A5JZ19)
T1 construct: full-length ORF of 346 amino acids, histidine-tagged, expressed in E. coli BL21(DE3) (pET-28a)
T1 sequence (A5JZ19 1-346): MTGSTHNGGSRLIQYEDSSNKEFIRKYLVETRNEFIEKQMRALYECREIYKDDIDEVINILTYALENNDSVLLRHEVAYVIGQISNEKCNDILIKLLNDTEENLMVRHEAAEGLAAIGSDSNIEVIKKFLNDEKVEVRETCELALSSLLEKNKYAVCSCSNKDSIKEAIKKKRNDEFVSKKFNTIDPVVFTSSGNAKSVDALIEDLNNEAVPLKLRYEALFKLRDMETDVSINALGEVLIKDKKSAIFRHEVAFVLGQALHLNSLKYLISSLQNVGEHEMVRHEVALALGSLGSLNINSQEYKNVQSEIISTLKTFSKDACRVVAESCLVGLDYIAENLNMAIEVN
Test: recombinant DOHH activity assay with eIF-5A(Dhp) substrate; radioactive filter assay and GC/MS, dose-response
Assay type: biochemical

IC50: 12,5 nmol
SMILES: CC(c1cc2ccccc2s1)N(O)C(N)=O (racemic) [zileuton, (RS)-1-(1-Benzothiophen-2-ylethyl)-1-hydroxyurea]
